Assay results published in patent US20260207563A1, “UREA COMPOUNDS AS ACTIVATORS OF POTASSIUM CHANNELS KV7.2/7.3 USEFUL IN THE TREATMENT OF CNS AND PNS DISORDERS” (ANGELINI PHARMA S.P.A., priority 2022, published 2026).

Target: T1, heteromeric KV7.2/KV7.3 channels (KCNQ2, KCNQ3) (Homo sapiens, UniProt O43525+O43526)
T1 construct: expressed in transfected cells; host or cells: CHO-K1
Assay: Automated patch-clamp (Sophion Qube 384) potency assay against KV7.2/KV7.3 channels
Format: cell-based
Details: CHO-K1/Kv7.2/Kv7.3 cells; for EC50: EC50 from concentration-response of shift in Vhalf, 10 concentrations up to 30 μM, read-out: Kv7.2/7.3 EC50; for Kv7.2/7.3 ΔV1/2: maximal shift in the Vhalf from the top of the curve
Source text: Assessment of In Vitro Potency Against KV7.2/KV7.3 Channels
An automated patch-clamp assay on the Sophion Qube 384 was developed for potency testing to identify small molecule activators of heteromeric KV7.2/KV7.3 channels (KCNQ2, Uniprot ID 043526; KCNQ3, Uniprot 043525).
The cell line used was a stably transfected CHO-K1 cell line with constitutive KV7.2/KV7.3 expression.
CHO-K1/Kv7.2/Kv7.3 cells were maintained in the following culture media: • DMEM/F-12 with GlutaMAX™ (Gibco 31331-028), • 10% Fetal clone 2 serum (Perbio Science SH30066.03), • 1 mg/ml Geneticin™ selective antibiotic (G418, Invitrogen 1013027), and • 5 μg/ml BlasticidinS HCl (Invivogen Ant-bl-5).
On the day of the experiment, cells were resuspended in serum free media, counted and diluted to a final concentration of 3.5×10^6 cells per ml of media.
Cells were then placed onto the Sophion Qube 384 and rested for a minimum of 1 hour.
The following solutions were used for recording: • extracellular solution (in mM): 145 NaCl, 4 KCl, 1 MgCl2, 2 CaCl2), 10 HEPES, 10 glucose, pH 7.4, 315-320 mOsm. • intracellular solution (in mM): 120 KCl, 5.74 CaCl2), 1.75 MgCl2, 10 EGTA, 10 HEPES, 5 Na2ATP, pH 7.2, adjusted to 315 mOsm with sucrose.
After establishing the whole-cell configuration, cells were held at −80 mV throughout the experiment. A current-voltage (I-V) protocol stepping from −100 to +20 mV for 1 second was applied to measure Kv7.2/Kv7.3 currents, each step was followed by a 200 ms pulse to 0 mV to measure the tail currents. From the I-V protocol a Boltzmann fit was applied to generate activation curves. Data were sampled at 25 kHz and filtered at 5 kHz (Bessel). Data were produced using multihole QChips. The I-V protocol was applied several times to establish the response in control conditions (typically 0.3% DMSO) and in the presence of the test compound.
Data were reviewed in Sophion Analyser version 6.5.2 (Sophion Bioscience) for recording quality and filters were applied to remove any failed wells. Leak subtraction was applied to all recordings. Data filters for multihole QChips were typically: seal resistance>4 MΩ, capacitance >20 pF, baseline VHalf between 0 to −40 mV, baseline holding current between −2 to 2 nA, baseline steady state current at 20 mV >4 nA unless otherwise stated.
Analysis of Data for Assessment of Potency
10 concentrations of test compounds were applied to individual wells in quadruplicate to assess potency as a 1 in 3 dilution series from the maximal concentration of 30 μM. The average shift in the voltage for half activation (Vhalf) for each concentration was used to generate concentration-response curves fitted with a 4-parameter logistic model to estimate the EC50 from the point of inflection of the curve and the maximal shift in the Vhalf from the top of the curve.
The lower the EC50 value, the higher the potency of the analyzed compound. The selectivity criteria is assigned on the basis of the maximal shift in the Vhalf at 30 μM. […] In Table 3, ND means that selectivity was not determined.

Row | SMILES | EC50 | Kv7.2/7.3 ΔV1/2
1 | O=C(NCc1ccnc(OCC(F)(F)F)c1)N[C@@H]1CCCc2c(F)cccc21 [Compound 216] | 1.4 µM | 49.32 mV
2 | C#CCOc1cc(CNC(=O)N[C@@H]2CCCc3c(F)cccc32)ccn1 [Compound 217] | 1.76 µM | 29.44 mV
3 | O=C(NCc1ccnc(OCC(F)(F)F)c1)NC1(C(F)(F)F)COC1 [Compound 218] | 8 µM | 21.41 mV
4 | O=C(NCc1ccnc(OCC(F)(F)F)c1)NCC12CC(F)(C1)C2 [Compound 219] | 2.26 µM | 35.95 mV
5 | O=C(NCc1ccnc(OCC(F)(F)F)c1)N[C@H]1COC[C@H]1c1ccc(F)cc1 [Compound 220] | 11.8 µM | 29.83 mV
6 | C[C@@H](Oc1cc(CNC(=O)N[C@@H]2COc3ccccc3C2)ncn1)C(F)(F)F [Compound 221] | 3.2 µM | 35.15 mV
7 | O=C(NCc1ccnc(OCC(F)(F)F)c1)N[C@@H]1COC[C@H]1Oc1cccc(F)c1 [Compound 222] | 4.16 µM | 28.1 mV
8 | C[C@@H](Oc1cc(CNC(=O)N[C@@H](C2CC2)C(F)(F)F)ncn1)C(F)(F)F [Compound 223] | 7.4 µM | 41.12 mV
9 | C[C@@H](Oc1cc(CNC(=O)N[C@H](C2CC2)C(F)(F)F)ncn1)C(F)(F)F [Compound 224] | 3.43 µM | 37.09 mV
10 | C[C@@H](Oc1cc(CNC(=O)N[C@@H]2CCOc3cc(F)ccc32)ncn1)C(F)(F)F [Compound 225] | 6.41 µM | 42.13 mV
11 | C[C@@H](NC(=O)NCc1ccnc(OCC(F)(F)F)c1)c1ccc2c(c1)OC(F)(F)O2 [Compound 226] | 1.83 µM | 22.4 mV
12 | C[C@@H](NC(=O)NCc1ccnc(OCC(F)(F)F)c1)c1cccc2c1OC(F)(F)O2 [Compound 227] | 1.86 µM | 31.71 mV
13 | O=C(NCc1ccnc(OCC(F)(F)F)c1)NCC12CC(C(F)(F)F)(C1)C2 [Compound 228] | 0.97 µM | 20.27 mV
14 | O=C(NCc1ccnc(OCC(F)(F)F)c1)N[C@@H]1COC[C@H]1c1ccc(F)cc1 [Compound 229] | 12.7 µM | 76.14 mV
15 | O=C(NCc1ccnc(OCC(F)(F)F)c1)N[C@H]1COC[C@@H]1c1ccc(F)cc1 [Compound 230] | 1.77 µM | 20.02 mV
16 | O=C(NCc1ccnc(OCC(F)(F)F)c1)N[C@H]1CN(CC(F)(F)F)C[C@@H]1c1ccccc1 [Compound 231] | > 30 µM | 49.96 mV
17 | O=C(NCc1ccnc(OCC(F)(F)F)c1)N[C@@H]1CN(CC(F)(F)F)C[C@H]1c1ccccc1 [Compound 232] | 1.43 µM | 23.95 mV
18 | COc1ccc([C@H](NC(=O)NCc2ccnc(OCC(F)(F)F)c2)C(F)(F)F)cc1 [Compound 233] | 2.52 µM | 28.00 mV

Row | SMILES | EC50 | Kv7.2/7.3 ΔV1/2
19 | O=C(NCc1ccnc(OCC(F)(F)F)c1)N[C@@H]1COC[C@H]1Oc1ccc(F)cc1 [Compound 234] | 5.26 µM | 27.37 mV
20 | O=C(NCc1ccnc(OCC(F)(F)F)c1)N[C@@H]1COC2(CC2)C1 [Compound 235] | 6.22 µM | 21.79 mV
21 | O=C(NCc1ccnc(OCC(F)(F)F)c1)N[C@H]1C[C@H]2CC[C@@H]1O2 [Compound 236] | 11.9 µM | 31.52 mV
22 | O=C(NCc1ccnc(OCC(F)(F)F)c1)N[C@@H]1C[C@@H]2CC[C@H]1O2 [Compound 237] | 11.7 µM | 29.76 mV
23 | C[C@@H](NC(=O)NCc1ccnc(OCC(F)(F)F)c1)c1ccc(OC(F)(F)F)cc1 [Compound 238] | 2.91 µM | 24.31 mV
24 | O=C(NCc1ccnc(OCC(F)(F)F)c1)NCC12CC(F)(CO1)C2 [Compound 239] | 5.1 µM | 20.11 mV
25 | O=C(NCc1ccnc(OCC(F)(F)F)c1)N[C@H]1COC2(CC2)C1 [Compound 240] | 11.7 µM | 46.27 mV
26 | COc1cccc(N2C[C@H](NC(=O)NCc3ccnc(OCC(F)(F)F)c3)C(F)(F)C2)c1 [Compound 241] | 3.32 µM | 36.71 mV
27 | O=C(NCc1ccnc(OCC(F)(F)F)c1)N[C@@H]1CCO[C@H]1c1ccc(F)cc1 [Compound 242] | 2.98 µM | 34.51 mV
28 | O=C(NCc1ccnc(OCC(F)(F)F)c1)N[C@@H]1COC[C@H]1Oc1ccccc1F [Compound 243] | 3.73 µM | 26.56 mV
29 | C[C@@H](Oc1cc(CNC(=O)NCC23CC(F)(C2)C3)ncn1)C(F)(F)F [Compound 244] | 7.59 µM | 26.21 mV
30 | O=C(NCc1ccnc(OCC(F)(F)F)c1)N[C@@H]1CCO[C@H](c2ccc(F)cc2)C1 [Compound 245] | 2.19 µM | 46.39 mV
31 | Cn1ncc(C(F)(F)F)c1COc1cc(CNC(=O)NCCC2(C(F)(F)F)CC2)ccn1 [Compound 246] | 1.76 µM | 22.48 mV
32 | Cc1cnc(COc2cc(CNC(=O)NCCC3(C(F)(F)F)CC3)ccn2)o1 [Compound 247] | 5.05 µM | 24.56 mV
33 | O=C(NCc1ccnc(OCC(F)(F)F)c1)NCc1ccnc(OCC(F)(F)F)c1 [Compound 248] | 2.61 µM | 23.91 mV
34 | O=C(NCc1ccnc(OCC(F)(F)F)c1)N[C@@H]1COc2cc(OC(F)(F)F)ccc21 [Compound 249] | 3.42 µM | 26.44 mV
35 | O=C(NCCC1(C(F)(F)F)CC1)NCc1ccnc(OCC2CC2(F)F)c1 (stereo not shown) [Compound 250] | 2.58 µM | 21.04 mV
